# Results taken from patent US11420994B2, “Carbon-monoxide-releasing molecules and therapeutic applications thereof” (GEORGIA STATE UNIVERSITY RESEARCH FOUNDATION, INC., priority 2016, dated 2022).
# Where two headings read alike, the source gives them in different places.
# Key:
# TNF-α [1] = assay: LPS-induced accumulation of TNF-α in RAW 264.7 culture supernatant (ELISA), two-component system; type: cell-based, mouse
# Method: RAW264.7 cell were seeded in 6-well plates and incubated overnight. Cells were then stimulated with LPS (10 mg/mL) for 1 h. TPCPD (1) and BCN (6a) (different concentrations) were added to well after 1 hr LPS treatment (same for all wells). As a control, the product (31) was used at same concentration as the anti-inflammation test to confirm that the suppression of TNF-α is result of CO instead of the reagent (or product) themselves (compounds 1, 6a, and 31). TNF-α secretion in the medium was measured with an eBioscience kit (mouse TNF-α ELISA kit, eBioscience, San Diego, Calif., USA).
# TNF-α is a major pro-inflammatory cytokine, mainly secreted from macrophages and dendritic cells. Its production is induced in vitro by stimulation with LPS. The accumulation of TNF-α was assessed by ELISA in the culture supernatant of the macrophage cell line, RAW 264.7 (FIG. 5). The cells were stimulated for 1 h and then co-treated by […] for 24 h. […] A 50% decrease of the LPS-induced accumulation of TNF-α was observed after co-treatment with TPCPD-M and BCN-M at the respective concentration of 1 mM+1 mM.
# [2] = MTT cytotoxicity test of mannose-modified reactants
# Method: The cytotoxicity test, MTT assay, was performed to define the concentration using TPCPD-M (57, 1 mM) and BCN-M (61, 1 mM) (FIG. 4).
# [3] = Intramolecular DAR in DMSO/PBS (7.4) at 37° C., time to completion; type: physicochemical
# Method: A solution of compound 10b in DMSO/PBS (7.4) was incubated at 37° C. for 3 hrs, after which the intramolecular DAR reaction finished. Then the reaction mixture was extracted with ethyl acetate, and the obtained organic layer was dried with anhydrous Na2SO4, filtered and concentrated. Thus obtained pale yellow solid was characterized by ^1H NMR as the intramolecular DAR product. ^1H NMR (400 MHz, CDCl3): δ 9.27 (d, J=7.2 Hz, 1H), 7.88 (d, J=8.0 Hz, 1H), 7.79 (d, J=8.0 Hz, 1H), 7.71 (t, J=7.6 Hz, 1H), 7.61-7.53 (m, 5H), 7.32 (t, J=8.0 Hz, 1H), 7.08 (s, 1H), 7.04 (d, J=7.2 Hz, 1H), 5.37-5.18 (m, 1H), 3.53 (t, J=6.0 Hz, 2H), 3.05 (t, J=6.0 Hz, 2H), 1.32 (d, J=6.8 Hz, 6H).
# A solution of compound 10b in DMSO/PBS (7.4) was incubated at 37° C. for 24 hrs, after which the intramolecular DAR reaction was finished. Then the reaction mixture was extracted with ethyl acetate, and the obtained organic layer was dried with anhydrous Na2SO4. Filtered and concentrated, the obtained pale yellow solid was characterized by ^1H NMR as the intramolecular DAR product. ^1H NMR (400 MHz, CDCl3) δ 9.12 (d, J=8.0 Hz, 1H), 7.83 (d, J=8.4 Hz, 1H), 7.73 (d, J=8.4 Hz, 1H), 7.68 (t, J=8.0 Hz, 1H), 7.63-7.54 (m, 3H), 7.36 (d, J=8.0 Hz, 2H), 7.24 (t, J=8.0 Hz, 1H), 6.32 (d, J=8.0 Hz, 1H), 5.29-5.26 (m, 1H), 3.57-3.46 (m, 2H), 3.05-2.94 (m, 2H), 2.12 (s, 3H), 1.33 (d, J=6.8 Hz, 6H). […]
# [4] = Fluorescence properties of the cycloaddition products; type: physicochemical
# [5] = CO release kinetics by increase of fluorescence intensity; type: physicochemical
# Method: Compound 10a was dissolved indifferent solvents including CH2Cl2 (25° C.), CH3CN (25° C.), DMSO (25° C.), DMSO/PBS (10:1, 25° C.), DMSO/PBS (5:1, 25° C.), and DMSO/PBS (5:1, 37° C.) to give a final concentration of around 100 μM, and CO release was monitored by fluorescence intensity at 450 nm. Each experiment was repeated three times independently. The CO release rate (first order reaction rate) in DCM, CH3CN, DMSO, DMSO/PBS (10:1), DMSO/PBS (5:1), and DMSO/PBS (5:1, 37° C.) were different and their individual rate constant was calculated to be 2.3±0.2, 3.6±0.4, 6.6±0.6, 7.7±0.6, 11.0±1.4 and 22.4±3.2 h^−1, respectively. […] The CO release rate increased along with the polarity of the solvent.
# [6] = Determination of CO release rates (fluorescence or UV absorbance); type: physicochemical; conditions: DMSO/PBS (4:1) at 37° C.
# Method: For CO prodrugs with naphthalene scaffold, the CO release rate is easily done by monitoring the fluorescence intensity of the cyclized product. For the others, the CO release rate was determined by employing the UV absorbance difference between the prodrugs and the cyclized product.
# RAW 264.7 cells = assay: Cytotoxicity of CO prodrugs and inactive products (MTT); type: cell-based, mouse; conditions: 24 h incubation
# Method: The toxicity of compound 10b and product of compound 10b (44b) after CO release were tested on RAW 264.7 cells, which is a mouse macrophage cell line used for anti-inflammation test. Different concentrations of 10b and 44b product were added into the cell culture media (Dulbecco's Modified Eagle's Medium supplemented with 10% heat inactivated fetal bovine serum and 1% penicillin-streptomycin). All samples with different concentrations of 10b or 44b product contained 1% DMSO in the cell culture media. RAW 264.7 cells were seeded in 96-well plate one day before the experiment. The cells were then incubated with the compound for 24 hours at 37° C. with 5% CO2. The cell viability was tested by MTT assay. Basically, after 24 hours of incubation, 0.5 mg/mL MTT (3-(4,5-Dimethylthiazol-2-yl)-2,5-Diphenyltetrazolium Bromide) was added into the cell culture and incubated for 4 hours. Thereafter, the supernatant was removed and 100 μL of DMSO were added into the wells containing cells. After shaking gently for 3 minutes, absorbance at 570 nm was read by plate reader.
# (§1) 10a-10d, and 100 with different release rates were chosen to test their inhibitory effect against lipopolysaccharide (LPS) induced TNF-α secretion in RAW 264.7 cells. […] This was followed by the treatment of LPS for another 1 h. Then the cell culture supernatants were subjected to ELISA assay for TNF-α levels.
# [7] = CO release kinetics by increase of fluorescence intensity; type: physicochemical; conditions: PBS with 1% DMSO; 1% of DMSO in PBS (pH = 7.4); read-out: t1/2 half-life for CO release (converted)
# TNF-α [8] = assay: TNF-α ELISA in LPS treated RAW 264.7 cells pre-treated with CO prodrug; type: cell-based, mouse; conditions: pre-treated 5 h, then LPS 1 h
# Method: RAW 264.7 cells were seeded in the 48-well plate one day before the experiment.
# LPS was used to initialize the inflammatory response in RAW 264.7 cells and trigger the expression of cytokines. RAW 264.7 cells were pre-treated with different concentrations of 10b or 44b product for 5 hours. Thereafter, […] LPS was added with into the cell culture media. For TNF-α test, the cell culture supernatant was collected after 1 hour of LPS treatment. For IL-6 test, the cell culture supernatant was collected after 4 hours of LPS treatment. Cell culture without LPS treatment was used as control.
# as §1
# [9] = tested on: pulmonary arterial hypertension; conditions: breathing CO gas (e.g., 150 ppm), after 16 weeks; cited from earlier work
# [10] = of the cycloaddition products 44a-44f and 100a
compound,measurement,setting,value
O=C(NCCOCCOCCOC1OC(CO)C(O)C(O)C1O)OCC1[C@H]2CCC#CCC[C@@H]12 (some centres unmarked) [BCN-M],decrease of the LPS-induced accumulation of TNF-α,"TNF-α [1]; co-treatment with TPCPD-M and BCN-M 1 mM+1 mM, 24 h",50%
same,inhibition of the LPS-induced accumulation of TNF-α,TNF-α [1]; tested separately,do not lead to any inhibition
same,cytotoxicity,"[2]; 24 h of treatment, within 1 mM",none of the compounds led to any cytotoxicity
"NCC(=O)O.[C-]#[O+].[C-]#[O+].[C-]#[O+].[Cl][Ru] [CORM3, reference compound]",decrease in cell viability,[2]; 1 mM,30%
C#CCN(C)C(=O)C1=C2C(=C(c3ccccc3)C1=O)c1cccc3cccc2c13 [Compound 10a],incubation time after which the intramolecular DAR reaction was finished,[3],5 min
same,λem emission wavelength,[4]; [10],450 nm
same,λex excitation wavelength,[4]; [10],371 nm
same,Φ quantum yield,"[4]; of the cycloaddition products 44a-44f and 100a in MeOH, quinine sulfate as the standard",0.21
same,k CO release rate,[5]; CH2Cl2 at room temperature (25° C.),2.3 ± 0.2 h⁻¹
same,CO release rate constant (first order),[5]; CH3CN (25° C.),3.6 ± 0.4 h⁻¹
same,CO release rate constant (first order),[5]; DMSO (25° C.),6.6 ± 0.6 h⁻¹
same,CO release rate constant (first order),"[5]; DMSO/PBS (5:1, 25° C.)",11.0 ± 1.4 h⁻¹
same,CO release rate constant (first order),"[5]; DMSO/PBS (10:1, 25° C.)",7.7 ± 0.6 h⁻¹
same,k CO release rate,[5]; DMSO/PBS (pH = 7.4) 5:1 at 37° C.,22.4 ± 3.2 h⁻¹
C#CCOc1ccccc1C1=C2C(=C(C(=O)N3CCOCC3)C1=O)c1cccc3cccc2c13 [Compound 51],K CO release,[6],0.31 ± 0.003 h⁻¹
same,incubation time after which the intramolecular DAR reaction was finished,[3],960 min
C#CCCN(CCOC1OC(CO)C(O)C(O)C1O)C(=O)C1=C2C(=C(c3ccccc3)C1=O)c1cccc3cccc2c13 (centres unmarked) [Compound 100],effect on cell viability,RAW 264.7 cells,did not show any effect on cell viability at up to 50 μM
same,K CO release,[6],0.33 ± 0.01 h⁻¹
same,half-life,"[5]; DMSO/PBS 5:1, DMSO/PBS (pH = 7.4) 5:1 at 37° C., read-out: t1/2 half-life for CO release (converted)",2.1 h
same,half-life,[7],0.18 h
O=C1c2c(cc(-c3ccccc3)c3c2-c2cccc4cccc-3c24)CCN1CCOC1OC(CO)C(O)C(O)C1O (centres unmarked) [Compound 100a],effect on cell viability,RAW 264.7 cells,did not show any effect on cell viability at up to 50 μM
same,LPS-induced TNF-α expression / secretion,TNF-α [8],dose-dependently inhibited
carbon monoxide [CO],decrease of pulmonary vascular resistance compared to the pre-therapy value,[9],20%
